Molecular target: T1, GluD2-Lc-(HS2)GluN1 (Rattus norvegicus, UniProt Q63226, A654T/A766F/D767R/N763E/R768S/T764L/V761T/V765F)
T1 construct: the function of full-length receptors as well, we introduced them into the GluD2 lurcher mutant (GluD2-Lc); expressed in transfected cells; host or cells: Xenopus laevis oocytes injected with cRNA
T1 sequence (Q63226 24-1007 A654T/V761T/N763E/T764L/V765F/A766F/D767R/R768S): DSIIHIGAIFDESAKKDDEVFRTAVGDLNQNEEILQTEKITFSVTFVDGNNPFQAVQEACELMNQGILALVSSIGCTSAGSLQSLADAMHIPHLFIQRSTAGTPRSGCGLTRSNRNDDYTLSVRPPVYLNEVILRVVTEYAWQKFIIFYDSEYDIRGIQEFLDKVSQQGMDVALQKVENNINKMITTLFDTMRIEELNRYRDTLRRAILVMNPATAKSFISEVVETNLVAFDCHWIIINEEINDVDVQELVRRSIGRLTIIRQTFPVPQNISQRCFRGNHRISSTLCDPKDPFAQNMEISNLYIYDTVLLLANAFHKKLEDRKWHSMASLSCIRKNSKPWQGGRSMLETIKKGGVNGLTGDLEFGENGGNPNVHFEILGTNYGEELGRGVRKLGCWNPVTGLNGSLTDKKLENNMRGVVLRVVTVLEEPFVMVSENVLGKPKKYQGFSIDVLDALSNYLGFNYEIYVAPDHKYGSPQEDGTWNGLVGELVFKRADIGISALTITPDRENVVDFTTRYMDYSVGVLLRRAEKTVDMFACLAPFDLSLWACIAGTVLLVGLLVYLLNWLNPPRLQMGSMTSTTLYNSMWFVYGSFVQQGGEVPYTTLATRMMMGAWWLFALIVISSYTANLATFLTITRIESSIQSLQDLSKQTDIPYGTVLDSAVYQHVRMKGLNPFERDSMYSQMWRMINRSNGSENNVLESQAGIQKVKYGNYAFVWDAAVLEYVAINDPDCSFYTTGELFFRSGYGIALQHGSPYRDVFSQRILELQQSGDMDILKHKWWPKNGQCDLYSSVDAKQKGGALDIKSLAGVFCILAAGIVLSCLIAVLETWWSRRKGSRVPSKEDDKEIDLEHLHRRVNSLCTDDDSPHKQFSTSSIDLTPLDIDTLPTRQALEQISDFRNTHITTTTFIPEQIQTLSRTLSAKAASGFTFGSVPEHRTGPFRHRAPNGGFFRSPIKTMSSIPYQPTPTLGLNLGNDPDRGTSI
Test: Two-electrode voltage clamp in Xenopus oocytes, inhibition of spontaneous currents
Assay type: cell-based
Source text: All cDNAs for expression in Xenopus oocytes were cloned into the vector pSGEM[30]. Point mutants of GluD2-Lc were constructed by overlap extension PCR with mutagenic oligonucleotide primers. The GluD2-Lc-(H)GluN1 chimera was constructed by transferring the S1- and S2-encoding sequences from GluD2-LBD-(H)GluN1 to GluD2-Lc via overlap extension PCR using tail primers. The S1 and S2 sequences were transferred separately, yielding GluD2-Lc-(HS1)GluN1 and GluD2-Lc-(HS2)GluN1 constructs. GluD2-Lc-(H)GluN1 was then produced from these by another overlap extension PCR. Complementary RNA (cRNA) for injection into oocytes was synthesised from 1 μg of linearised template DNA with the mMESSAGE mMACHINE in vitro transcription kit (Ambion, Austin, TX, USA).
Oocytes were obtained by surgically removing parts of the ovaries from Xenopus laevis (Nasco, Fort Atkinson, WI, USA) anaesthetised with 1.5 g/L 3-aminobenzoic acid ethylester (Sigma, Taufkirchen, Germany). The ovary clippings were digested with 784 U/mL (4 mg/mL) collagenase type I (Worthington, Lakewood, NJ, USA) in Ca^2+-free Barth’s solution (88 mM NaCl, 1.1 mM KCl, 2.4 mM NaHCO3, 0.8 mM MgSO4, 15 mM HEPES-NaOH, pH 7.6) with gentle agitation for 1.5–2 h at 20 °C to remove the follicular cell layer. After stopping the collagenase digestion by washing with Barth’s solution (88 mM NaCl, 1.1 mM KCl, 2.4 mM NaHCO3, 0.3 mM Ca(NO3)2, 0.4 mM CaCl2, 0.8 mM MgSO4, 15 mM HEPES-NaOH, pH 7.6), defolliculated oocytes of stages V and VI were selected and maintained at 16 °C in Barth’s solution supplemented with 100 μg/mL gentamicin, 40 μg/mL streptomycin, and 63 μg/mL penicillin. Oocytes were injected with 11 ng cRNA (10 ng of each cRNA for co-expression of GluN1 and GluN2A) using a nanoliter injector (WPI, Sarasota, FL, USA). Four days after cRNA injection, current responses were recorded under voltage clamp at –70 mV with a Turbo Tec-10CD amplifier (npi electronic, Tamm, Germany) controlled by Patchmaster software (HEKA, Lambrecht, Germany). Currents were filtered with a 20 Hz low-pass filter and then digitised with a sampling rate of 50 Hz. Recording electrodes were pulled from borosilicate glass (Hilgenberg, Malsfeld, Germany) with an L/M-3P-A vertical pipette puller (List-Medical), filled with 3 M KCl, and had resistances of 0.5–5 MΩ (voltage electrode) or 0.5–1.5 MΩ (current electrode). Recordings were performed in a 50 μL chamber under constant superfusion with extracellular solution at a flow rate of 3–5 mL/min. […] Finally, Ba-NFR and then NMDGR were applied again to check for reversibility.

**Q.** Which “D-serine efficacy Mean ± SEM” value (fraction of spontaneous current inhibited by D-serine) does the source give for N[C@H](CO)C(=O)O [D-serine] here?
**A.** The value was 0.9 ± 0.4%.

**Q.** What about the “sensitivity to D-serine” value (inhibition of spontaneous currents) of the same compound?
**A.** The value was “insensitive”.

Source: paper PMC5384001 (Scientific Reports, 2017)
